According to PubChem BioAssay (NCI):
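Protocol summary: plate cells (96-well), add compound at 5 concentrations, incubate 48 h, interpolate endpoints linearly. Abbreviation: GI50, concentration required for 50% inhibition of growth. TGI: total growth inhibition.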

Legend:
Assay in all cases: NCI-60 cell line screen, 48 h
[1] = tested on: SNB-75 CNS
[2] = tested on: SW-620 colon
[3] = tested on: 786-0 renal
[4] = tested on: MDA-MB-231 breast
[5] = tested on: ACHN renal
[6] = tested on: U251 CNS
[7] = tested on: EKVX NSCLC
[8] = tested on: BT-549 breast
[9] = tested on: SN12C renal
[10] = tested on: SK-MEL-2 melanoma
[11] = tested on: OVCAR-4 ovarian
[12] = tested on: HCT-116 colon
[13] = tested on: T-47D breast
[14] = tested on: COLO 205 colon
[15] = tested on: SK-MEL-28 melanoma
[16] = tested on: HL-60(TB) leukemia
[17] = tested on: UACC-257 melanoma
[18] = tested on: HS 578T breast
[19] = tested on: HOP-92 NSCLC
[20] = tested on: IGROV1 ovarian
[21] = tested on: MDA-MB-435
[22] = tested on: LOX IMVI melanoma
[23] = tested on: NCI-H23 lung
[24] = tested on: MCF7 breast
[25] = tested on: CCRF-CEM leukemia
[26] = tested on: OVCAR-5 ovarian
[27] = tested on: HCC-2998 colon
[28] = tested on: RXF 393 renal
[29] = tested on: K-562 leukemia
[30] = tested on: SNB-19 CNS
[31] = tested on: SF-539 CNS
[32] = tested on: TK-10 renal
[33] = tested on: SR leukemia
[34] = tested on: A549 NSCLC
[35] = tested on: UO-31 renal
[36] = tested on: PC-3 prostate
[37] = tested on: HCT-15 colon
[38] = tested on: MALME-3M melanoma
[39] = tested on: NCI-H522 lung
[40] = tested on: SF-295 CNS
[41] = tested on: NCI-H226 lung
[42] = tested on: SF-268 CNS
[43] = tested on: HOP-62 NSCLC
[44] = tested on: NCI-H460 lung
[45] = tested on: M14 melanoma
[46] = tested on: HT29 colon
[47] = tested on: KM12 colon
[48] = tested on: A498 renal
[49] = tested on: SK-OV-3 ovarian
[50] = tested on: DU-145 prostate
[51] = tested on: CAKI-1 renal
[52] = tested on: OVCAR-8 ovarian
[53] = tested on: SK-MEL-5 melanoma
[54] = tested on: OVCAR-3 ovarian
[55] = tested on: RPMI-8226 leukemia
[56] = tested on: NCI/ADR-RES ovarian
[57] = tested on: MOLT-4 leukemia

CS(=O)(=O)c1ccc(-c2cnc(NCc3ccco3)n3cnnc23)cc1
GI50 [1]: > 100 µM | TGI [1]: > 100 µM | GI50 [2]: > 100 µM | TGI [2]: > 100 µM | GI50 [3]: > 100 µM | TGI [3]: > 100 µM | GI50 [4]: 41.4 µM | TGI [4]: > 100 µM | GI50 [5]: > 100 µM | TGI [5]: > 100 µM | GI50 [6]: > 100 µM | TGI [6]: > 100 µM | GI50 [7]: > 100 µM | TGI [7]: > 100 µM | GI50 [8]: > 100 µM | TGI [8]: > 100 µM | GI50 [9]: > 100 µM | TGI [9]: > 100 µM | GI50 [10]: 66.6 µM | TGI [10]: > 100 µM | GI50 [11]: > 100 µM | TGI [11]: > 100 µM | GI50 [12]: > 100 µM | TGI [12]: > 100 µM | GI50 [13]: 47.8 µM | TGI [13]: > 100 µM | GI50 [14]: 28.7 µM | TGI [14]: > 100 µM | GI50 [15]: 25.3 µM | TGI [15]: > 100 µM | GI50 [16]: 39.7 µM | TGI [16]: > 100 µM | GI50 [17]: 24.7 µM | TGI [17]: > 100 µM | GI50 [18]: > 100 µM | TGI [18]: > 100 µM | GI50 [19]: 21.4 µM | TGI [19]: > 100 µM | GI50 [20]: > 100 µM | TGI [20]: > 100 µM | GI50 [21]: 54.5 µM | TGI [21]: > 100 µM | GI50 [22]: 60.1 µM | TGI [22]: > 100 µM | GI50 [23]: > 100 µM | TGI [23]: > 100 µM | GI50 [24]: 60.4 µM | TGI [24]: > 100 µM | GI50 [25]: 38 µM | TGI [25]: > 100 µM | GI50 [26]: > 100 µM | TGI [26]: > 100 µM | GI50 [27]: > 100 µM | TGI [27]: > 100 µM | GI50 [28]: > 100 µM | TGI [28]: > 100 µM | GI50 [29]: 72.6 µM | TGI [29]: > 100 µM | GI50 [30]: > 100 µM | TGI [30]: > 100 µM | GI50 [31]: > 100 µM | TGI [31]: > 100 µM | GI50 [32]: > 100 µM | TGI [32]: > 100 µM | GI50 [33]: > 100 µM | TGI [33]: > 100 µM | GI50 [34]: > 100 µM | TGI [34]: > 100 µM | GI50 [35]: 38.8 µM | TGI [35]: > 100 µM | GI50 [36]: 57.8 µM | TGI [36]: > 100 µM | GI50 [37]: > 100 µM | TGI [37]: > 100 µM | GI50 [38]: 27.5 µM | TGI [38]: > 100 µM | GI50 [39]: > 100 µM | TGI [39]: > 100 µM | GI50 [40]: > 100 µM | TGI [40]: > 100 µM | GI50 [41]: 49 µM | TGI [41]: > 100 µM | GI50 [42]: > 100 µM | TGI [42]: > 100 µM | GI50 [43]: > 100 µM | TGI [43]: > 100 µM | GI50 [44]: > 100 µM | TGI [44]: > 100 µM | GI50 [45]: 27 µM | TGI [45]: > 100 µM | GI50 [46]: 28.8 µM | TGI [46]: > 100 µM | GI50 [47]: > 100 µM | TGI [47]: > 100 µM | GI50 [48]: > 100 µM | TGI [48]: > 100 µM | GI50 [49]: > 100 µM | TGI [49]: > 100 µM | GI50 [50]: > 100 µM | TGI [50]: > 100 µM | GI50 [51]: > 100 µM | TGI [51]: > 100 µM | GI50 [52]: > 100 µM | TGI [52]: > 100 µM | GI50 [53]: 31.7 µM | TGI [53]: > 100 µM | GI50 [54]: > 100 µM | TGI [54]: > 100 µM | GI50 [55]: 53.3 µM | TGI [55]: > 100 µM | GI50 [56]: > 100 µM | TGI [56]: > 100 µM | GI50 [57]: 37.4 µM | TGI [57]: > 100 µM
